Data taken from PubChem BioAssay (NCI).
Converted amounts (≈) assume the structure as drawn. “And” between values parts separate entries of the source, which are not always exact repeats. Equal values may be shown once.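 Following 48 hours of exposure in 96-well plates, responses at five concentrations were used to interpolate endpoints linearly. GI50 marks 50% less growth. TGI: total growth inhibition.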

Assays:
Assay in all cases: NCI tumour cell line growth inhibition, 48 h
[1] = system: SR leukemia
[2] = system: COLO 205 colon
[3] = system: SW-620 colon
[4] = system: TK-10 renal
[5] = system: M14 melanoma
[6] = system: NCI-H23 lung
[7] = system: HS 578T breast
[8] = system: RXF 393 renal
[9] = system: A549 NSCLC
[10] = system: MDA-N
[11] = system: SN12C renal
[12] = system: PC-3 prostate
[13] = system: SNB-78 CNS
[14] = system: LXFL 529 NSCLC
[15] = system: XF 498 CNS
[16] = system: OVCAR-8 ovarian
[17] = system: HCC-2998 colon
[18] = system: EKVX NSCLC
[19] = system: SNB-19 CNS
[20] = system: SK-MEL-28 melanoma
[21] = system: OVCAR-3 ovarian
[22] = system: MDA-MB-435
[23] = system: MCF7 breast
[24] = system: CAKI-1 renal
[25] = system: MALME-3M melanoma
[26] = system: UACC-62 melanoma
[27] = system: HOP-62 NSCLC
[28] = system: U251 CNS
[29] = system: SF-268 CNS
[30] = system: ACHN renal
[31] = system: SK-MEL-5 melanoma
[32] = system: IGROV1 ovarian
[33] = system: HOP-92 NSCLC
[34] = system: NCI-H460 lung
[35] = system: RXF-631 renal
[36] = system: RPMI-8226 leukemia
[37] = system: LOX IMVI melanoma
[38] = system: BT-549 breast
[39] = system: MOLT-4 leukemia
[40] = system: UO-31 renal
[41] = system: SF-539 CNS
[42] = system: SK-OV-3 ovarian
[43] = system: HOP-18 NSCLC
[44] = system: HL-60(TB) leukemia
[45] = system: HT29 colon
[46] = system: A498 renal
[47] = system: HCT-116 colon
[48] = system: NCI-H226 lung
[49] = system: OVCAR-4 ovarian
[50] = system: SF-295 CNS
[51] = system: M19-MEL melanoma
[52] = system: NCI/ADR-RES ovarian
[53] = system: DMS 114 small cell lung
[54] = system: SNB-75 CNS
[55] = system: DMS 273 small cell lung
[56] = system: K-562 leukemia
[57] = system: CCRF-CEM leukemia
[58] = system: SK-MEL-2 melanoma
[59] = system: OVCAR-5 ovarian
[60] = system: NCI-H522 lung
[61] = system: KM12 colon
[62] = system: DLD-1 colon
[63] = system: T-47D breast
[64] = system: KM20L2 colon
[65] = system: 786-0 renal
[66] = system: HCT-15 colon
[67] = system: UACC-257 melanoma
[68] = system: DU-145 prostate
[69] = system: P388 leukemia
[70] = system: SN12K1 renal

Cc1c(N)nc(C(CC(N)=O)NCC(N)C(N)=O)nc1C(=O)NC(C(=O)NC(C)C(O)C(C)C(=O)NC(C(=O)NCCc1nc(-c2nc(C(=O)NCCCNCCCCN)cs2)cs1)C(C)O)C(OC1OC(CO)C(O)C(O)C1OC1OC(CO)C(O)C(OC(N)=O)C1O)c1cnc[nH]1 (stereo not given)
GI50 [1]: 0.0139 µg/mL (≈ 0.00962 µM) | TGI [1]: 0.287 µg/mL (≈ 0.199 µM) | GI50 [2]: 8.7 µg/mL and 4.7 µg/mL | TGI [2]: > 10000 nM | GI50 [3]: 25.2 µg/mL (≈ 17.5 µM) | TGI [3]: > 10000 nM | GI50 [4]: 19.4 µg/mL (≈ 13.4 µM) | TGI [4]: > 10000 nM | GI50 [5]: 9.31 µg/mL (≈ 6.46 µM) | TGI [5]: > 10000 nM | GI50 [6]: 0.251 µg/mL (≈ 0.174 µM) | TGI [6]: 11.1 µg/mL and > 10 µM | GI50 [7]: 5.69 µg/mL and 0.24 µg/mL | TGI [7]: 38.4 µg/mL (≈ 26.6 µM) | TGI [8]: 3450 nM | GI50 [9]: 2.69 µg/mL and 1.06 µg/mL | TGI [9]: > 10000 nM | GI50 [10]: 27.4 µg/mL (≈ 19 µM) | GI50 [11]: 3.12 µg/mL and 2.58 µg/mL | TGI [11]: 27.6 µg/mL and > 10 µM | GI50 [12]: 15.3 µg/mL (≈ 10.6 µM) | TGI [13]: > 10000 nM | TGI [14]: > 10000 nM | TGI [15]: > 10000 nM | GI50 [16]: 2.1 µg/mL and 1.04 µg/mL | TGI [16]: 9.85 µg/mL and 25.1 µg/mL and > 10 µM | TGI [17]: > 10000 nM | TGI [18]: > 10000 nM | GI50 [19]: 8.2 µg/mL and 29.7 µg/mL | TGI [19]: > 10000 nM | GI50 [20]: 48 µg/mL (≈ 33.3 µM) | TGI [20]: > 10000 nM | GI50 [21]: 7.69 µg/mL (≈ 5.34 µM) | GI50 [22]: 15.9 µg/mL (≈ 11 µM) | GI50 [23]: 3.08 µg/mL (≈ 2.14 µM) | GI50 [24]: 0.845 µg/mL and 2.94 µg/mL | TGI [24]: 2380 nM | TGI [25]: > 10000 nM | GI50 [26]: 0.605 µg/mL and 0.744 µg/mL | TGI [26]: 25.6 µg/mL and > 10 µM | GI50 [27]: 0.137 µg/mL (≈ 0.095 µM) | GI50 [28]: 8.06 µg/mL (≈ 5.59 µM) | TGI [28]: > 10000 nM | GI50 [29]: 2.55 µg/mL and 0.324 µg/mL | TGI [29]: 23.8 µg/mL and > 10 µM | GI50 [30]: 0.182 µg/mL and 0.0425 µg/mL | GI50 [31]: 1.05 µg/mL and 0.164 µg/mL | TGI [31]: 15.9 µg/mL and > 10 µM | GI50 [32]: 9.17 µg/mL and 6.68 µg/mL | TGI [32]: > 10000 nM | GI50 [33]: 3.38 µg/mL (≈ 2.35 µM) | GI50 [34]: 0.199 µg/mL and 0.171 µg/mL | TGI [34]: > 10000 nM | TGI [35]: > 10000 nM | GI50 [36]: 13.3 µg/mL (≈ 9.2 µM) | TGI [36]: > 10000 nM | GI50 [37]: 0.324 µg/mL and 0.149 µg/mL | TGI [37]: 3.47 µg/mL and 10.3 µg/mL and > 10 µM | GI50 [38]: 13.7 µg/mL (≈ 9.54 µM) | GI50 [39]: 4.22 µg/mL and 2.23 µg/mL | GI50 [40]: 2.07 µg/mL and 0.691 µg/mL | TGI [40]: 5.71 µg/mL and > 10 µM | GI50 [41]: 0.21 µg/mL and 0.0169 µg/mL | GI50 [42]: 8.67 µg/mL (≈ 6.02 µM) | TGI [42]: > 10000 nM | TGI [43]: > 10000 nM | GI50 [44]: 11.8 µg/mL (≈ 8.2 µM) | GI50 [45]: 50.8 µg/mL (≈ 35.3 µM) | TGI [45]: > 10000 nM | GI50 [46]: 18.5 µg/mL (≈ 12.8 µM) | TGI [46]: > 10000 nM | GI50 [47]: 0.288 µg/mL and 1.04 µg/mL | TGI [47]: 26.8 µg/mL and > 10 µM | GI50 [48]: 9.65 µg/mL and 3.45 µg/mL | TGI [49]: > 10000 nM | GI50 [50]: 0.603 µg/mL and 0.261 µg/mL | TGI [50]: 12 µg/mL and 4.04 µM | TGI [51]: > 10000 nM | GI50 [52]: 3.44 µg/mL and 1.4 µg/mL | TGI [52]: 17 µg/mL | TGI [53]: > 10000 nM | GI50 [54]: 8.83 µg/mL and 3.08 µg/mL | TGI [55]: > 10000 nM | GI50 [56]: 29.2 µg/mL (≈ 20.3 µM) | TGI [56]: > 10000 nM | GI50 [57]: 3.15 µg/mL (≈ 2.19 µM) | TGI [57]: > 10000 nM | TGI [58]: > 10000 nM | GI50 [59]: 45.6 µg/mL (≈ 31.7 µM) | TGI [59]: > 10000 nM | GI50 [60]: 7.11 µg/mL (≈ 4.94 µM) | TGI [60]: > 10000 nM | GI50 [61]: 40 µg/mL (≈ 27.7 µM) | TGI [61]: > 10000 nM | TGI [62]: > 10000 nM | GI50 [63]: 16.5 µg/mL (≈ 11.5 µM) | TGI [64]: > 10000 nM | GI50 [65]: 0.895 µg/mL and 0.562 µg/mL | TGI [65]: 19.4 µg/mL and > 10 µM | GI50 [66]: 1.92 µg/mL (≈ 1.33 µM) | TGI [66]: > 10000 nM | GI50 [67]: 86.1 µg/mL (≈ 59.8 µM) | TGI [67]: > 10000 nM | GI50 [68]: 2.17 µg/mL and 11.3 µg/mL | TGI [68]: 48 µg/mL (≈ 33.3 µM)

C=C1CC(OC)(C(O)C(=O)N[C@H]2OCO[C@H]3C2O[C@H](C[C@H](O)COC)C(C)(C)C3OC)O[C@H](C)[C@@H]1C (stereo not given in full)
TGI [2]: > 7.72 nM | TGI [6]: > 7.72 nM | TGI [8]: > 7.72 nM | TGI [9]: > 7.72 nM | TGI [11]: > 7.72 nM | TGI [13]: > 7.72 nM | TGI [15]: > 7.72 nM | TGI [16]: > 7.72 nM | TGI [17]: > 7.72 nM | TGI [18]: > 7.72 nM | TGI [19]: > 7.72 nM | TGI [20]: > 7.72 nM | TGI [21]: > 7.72 nM | TGI [23]: > 7.72 nM | TGI [26]: > 7.72 nM | TGI [27]: > 7.72 nM | TGI [28]: > 7.72 nM | TGI [29]: > 7.72 nM | TGI [31]: > 7.72 nM | TGI [32]: > 7.72 nM | TGI [34]: > 7.72 nM | TGI [69]: > 7.72 nM | TGI [36]: > 7.72 nM | TGI [39]: > 7.72 nM | TGI [40]: > 7.72 nM | TGI [41]: > 7.72 nM | TGI [43]: > 7.72 nM | TGI [45]: > 7.72 nM | TGI [46]: > 7.72 nM | TGI [47]: > 7.72 nM | TGI [48]: > 7.72 nM | TGI [49]: > 7.72 nM | TGI [50]: > 7.72 nM | TGI [51]: > 7.72 nM | TGI [52]: > 7.72 nM | TGI [53]: > 7.72 nM | TGI [54]: > 7.72 nM | TGI [56]: > 7.72 nM | TGI [57]: > 7.72 nM | TGI [59]: > 7.72 nM | TGI [60]: > 7.72 nM | TGI [70]: > 7.72 nM | TGI [64]: > 7.72 nM | TGI [66]: > 7.72 nM | TGI [67]: > 7.72 nM
